Among the data in patent publication US8288371B2, “Ortho pyrrolidine, benzyl-substituted heterocycle CCR1 antagonists for autoimmune diseases and inflammation” (Pharmacopeia, LLC, priority 2007, dated 2012) are IC50 values, retold here.

What is called IC50 is the point on the concentration scale where inhibition reaches its midpoint.

The assay deals with T1, human CCR1 (Homo sapiens, UniProt P32246).
T1 sequence (P32246 1-355): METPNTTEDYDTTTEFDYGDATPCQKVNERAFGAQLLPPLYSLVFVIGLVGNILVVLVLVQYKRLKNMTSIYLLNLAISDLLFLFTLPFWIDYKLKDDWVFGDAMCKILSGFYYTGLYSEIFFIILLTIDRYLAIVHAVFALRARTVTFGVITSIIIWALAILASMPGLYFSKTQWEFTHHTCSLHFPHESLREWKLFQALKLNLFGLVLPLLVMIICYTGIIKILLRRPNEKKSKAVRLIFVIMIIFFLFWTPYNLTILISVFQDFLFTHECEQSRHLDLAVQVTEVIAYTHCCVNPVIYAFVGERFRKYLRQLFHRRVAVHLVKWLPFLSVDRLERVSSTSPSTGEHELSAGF
Nature of the assay: CCR1 binding protocol (SPA, [125I]-MIP-1α displacement). To be noted: cell membrane expressing human CCR1, 0.1 nM [125I]-MIP-1α, 4 hours at ambient temperature; read-out: Relative potency (IC50). The procedure, abridged: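 Displacement of 0.1 nM [125I]-MIP-1α (final) from membranes expressing human CCR1 was measured by scintillation proximity after 4 h at ambient temperature. Conditions: pH 7.4 Tris buffer with 0.1% BSA and MnCl, and 0.5 μg membrane per well. Compounds were tested as a 10-step ½-log series from a 10 mM DMSO stock to derive IC50.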
As to `Cc1nnc([C@H]2CCCN2C(=O)Nc2ccc(Cl)cc2F)n1Cc1ccc(F)cc1` [Compound 367], the IC50 lay within 50 to 500 nM.

Consider `Cc1nnc([C@H]2CCCN2C(=O)N[C@@H]2CCS(=O)(=O)c3ccc(Cl)cc32)n1Cc1ccc(Cl)cc1` [Compound 368], for which the IC50 was less than 50 nM. Regarding `Cc1nnc([C@H]2CCCN2C(=O)N[C@H]2CCS(=O)(=O)c3ccc(Cl)cc32)n1Cc1ccc(Cl)cc1` [Compound 369], the IC50 is less than 50 nM. Under `O=C(N[C@@H]1CCS(=O)(=O)c2ccc(Cl)cc21)N1CCC[C@@H]1c1nnc(CO)n1Cc1ccc(Cl)cc1` [Compound 370] stands less than 50 nM; under `O=C(N[C@H]1CCS(=O)(=O)c2ccc(Cl)cc21)N1CCC[C@@H]1c1nnc(CO)n1Cc1ccc(Cl)cc1` [Compound 371], 50 to 500 nM; under `N#C/N=C(\Nc1ccc(C(F)(F)F)cc1)N1CCC[C@@H]1c1nnc(CO)n1Cc1ccc(Cl)cc1` [Compound 372], 500 to 5000 nM.

As for `N#C/N=C(\N[C@H]1CCOc2cc(C(F)(F)F)ccc21)N1CCC[C@@H]1c1nnc(CO)n1Cc1ccc(Cl)cc1` [Compound 373], the IC50 is 50 to 500 nM. Under `N#C/N=C(\NC1(c2ccccc2)CC1)N1CCC[C@@H]1c1nnc(CO)n1Cc1ccc(Cl)cc1` [Compound 374] stands 500 to 5000 nM. Under `Cc1cc(C)c(C(=O)N(C)C)cc1NC(=O)N1CCC[C@@H]1c1nnc(C)n1Cc1ccc(Cl)cc1` [Compound 375] stands 50 to 500 nM; under `Cc1nnc([C@H]2CCCN2C(=O)Nc2cc(S(C)(=O)=O)ccc2F)n1Cc1ccc(Cl)cc1` [Compound 376], 50 to 500 nM.

Take `Cc1nnc([C@H]2CCCN2/C(=N/C#N)NCc2ccc(C(F)(F)F)cc2)n1Cc1ccc(Cl)cc1` [Compound 377]: the IC50 lay within 50 to 500 nM. Under `Cc1nnc([C@H]2CCCN2C(=O)Nc2ccccc2S(C)(=O)=O)n1Cc1ccc(Cl)cc1` [Compound 378] stands 50 to 500 nM. Under `Cc1nnc([C@H]2CCCN2C(=O)Nc2cc(C(=O)N(C)C)ccc2C(F)(F)F)n1Cc1ccc(Cl)cc1` [Compound 379] stands 50 to 500 nM; under `CNC(=O)c1cc(NC(=O)N2CCC[C@@H]2c2nnc(C)n2Cc2ccc(Cl)cc2)c(C)cc1C` [Compound 380], less than 50 nM; under `Cc1nnc([C@H]2CCCN2C(=O)Nc2ccc3c(c2)N(C)C(=O)CO3)n1Cc1ccc(Cl)nc1` [Compound 381], 500 to 5000 nM.

For `Cc1nnc([C@H]2CCCN2C(=O)N[C@H]2CCOc3cc(C(F)(F)F)ccc32)n1Cc1ccc(Cl)nc1` [Compound 382], the IC50 lay within 50 to 500 nM. Consider `Cc1nnc([C@H]2CCCN2C(=O)NC2(c3ccccc3)CC2)n1Cc1ccc(Cl)nc1` [Compound 383], for which the IC50 lay in the range of 50 to 500 nM. For `Cc1nnc([C@H]2CCCN2C(=O)Nc2ccc(Cl)cc2F)n1Cc1ccc(Cl)c(Cl)c1` [Compound 384], the IC50 is 50 to 500 nM. Regarding `Cc1noc(C)c1NC(=O)N1CCC[C@@H]1c1nnc(C)n1Cc1ccc(F)cc1` [Compound 385], the IC50 lay within 50 to 500 nM. Regarding `Cc1nnc([C@H]2CCCN2C(=O)Nc2ccc3c(c2)N(C)C(=O)CO3)n1Cc1ccc(F)cc1` [Compound 386], the IC50 is 50 to 500 nM. Under `Cc1nnc([C@H]2C[C@@H](O)CN2C(=O)NC2(c3ccc(C(F)(F)F)cc3)CC2)n1Cc1ccc(Cl)cc1` [Compound 387] stands less than 50 nM. Turning to `Cc1nnc([C@H]2C[C@H](O)CN2C(=O)Nc2ccc(C(F)(F)F)cc2)n1Cc1ccc(Cl)cc1` [Compound 388], the IC50 was 50 to 500 nM. Under `Cc1nnc([C@H]2C[C@@H](O)CN2C(=O)NC(c2ccccc2)c2ccccc2)n1Cc1ccc(Cl)cc1` [Compound 389] stands 50 to 500 nM; under `Cc1nnc([C@H]2C[C@@H](O)CN2C(=O)Nc2ccc(Cl)cc2F)n1Cc1ccc(Cl)cc1` [Compound 390], 500 to 5000 nM; under `Cc1nnc([C@H]2C[C@@H](O)CN2C(=O)Nc2ccc(C(F)(F)F)cc2)n1Cc1ccc(Cl)cc1` [Compound 391], 500 to 5000 nM.

As to `Cc1onc(-c2ccccc2)c1NC(=O)N1C[C@H](O)C[C@@H]1c1nnc(C)n1Cc1ccc(Cl)cc1` [Compound 392], the half-maximal inhibitory concentration (IC50) lay in the range of 50 to 500 nM.
